In article PMC11184554, “Nature-Inspired Gallinamides Are Potent Antischistosomal Agents: Inhibition of the Cathepsin B1 Protease Target and Binding Mode Analysis” (ACS Infectious Diseases, 2024):
“And” between values parts separate entries of the source, which are not always exact repeats. Equal values may be shown once.

Columns and labels:
[1] = tested on: S. mansoni prolyl oligopeptidase (SmPOP); experiment: Protease activity in extracts of adult worms treated with gallinamides, Cbz–Gly–Pro–AMC; assay type: cell-based; conditions: adult worms incubated with 5 μM compound for 24 h (Figure 2 legend: 48 h); extract assayed with Cbz–Gly–Pro–AMC at pH 8.0
Description: Adult mixed sex S. mansoni were incubated in the presence of 5 μM gallinamide A, 1, 6, or 9 for 24 h, and protein extracts therefrom were assayed with the cathepsins B and L substrate, Cbz–Phe–Arg–AMC. Protease activity was reduced by ∼95% relative to the activity of untreated controls (Figure 2A). For comparison, we also quantified the activity of the nondigestive proteolytic enzyme, S. mansoni prolyl oligopeptidase (SmPOP). This serine protease, which is localized in the tegument of adult worms, was assayed with the selective substrate Cbz–Gly–Pro–AMC.[44] SmPOP was unaffected by the gallinamide treatment.
Figure 2 SmCB1 is a target for gallinamides in adult S. mansoni. (A) Mixed sex, adult S. mansoni were incubated for 48 h with 5 μM gallinamide A or 1, 6, and 9. After washing and preparation of worm extract, proteolytic activities (0.2 μg of protein) were measured in a kinetic assay using the cathepsin B and L substrate, Cbz–Phe–Arg–AMC (SmCatB/L, gray bars) at pH 5.5 or the prolyl oligopeptidase substrate, Cbz–Gly–Pro–AMC (SmPOP, white bars) at pH 8.0. Means ± SE of three replicates are normalized to the control not exposed to the inhibitor (set as 100%). (B–D) Imaging of SmCB1 using the gallinamide compound 5 as an activity-based probe. 5 contains an alkyne tag that can be modified by a copper-catalyzed click reaction with a fluorescent reagent (Alexa Fluor 647-azide) (B). Recombinant SmCB1 (rSmCB1, 0.5 μg) (C) or extracts of adult S. mansoni worms (7 μg of protein) (D) were incubated with 5 (10 μM) for 1 h and then clicked. Reactions were resolved by SDS-PAGE, and gels were visualized using a fluorescence scanner (Probe), stained for protein using Coomassie Brilliant Blue (CBB), or analyzed by Western blot with an anti-SmCB1 antibody (WB). In a control experiment, rSmCB1 or worm extract was treated with the […] protease inhibitor E-64 (10 μM), prior to incubation with 5. The positions of rSmCB1, native SmCB1, and its pro-form (pro-SmCB1) are indicated. The mass difference between rSmCB1 and native SmCB1 is caused by glycosylation (see Methods). The active site of the pro-SmCB1 is shielded by a propeptide[45] that prevents effective binding of 5. […]
Proteolytic activities in S. mansoni adult extracts were measured in a continuous kinetic assay using the following peptidyl fluorogenic substrates (Bachem) or internally quenched FRET substrates (IOCB): 50 μM Cbz–Phe–Arg–AMC for cathepsins B and L,[13],[15] […] Substrate hydrolysis was measured continuously using an Infinite M1000 microplate reader (Tecan) at excitation and emission wavelengths of 360/465 nm for AMC substrates and 320/420 nm for FRET substrates. […]

[2] = tested on: recombinant SmCB1; experiment: Kinetic inhibition assay with recombinant SmCB1 (k2nd); assay type: biochemical, S. mansoni; conditions: for SmCB1 inhibition k2nd: second-order rate constant (kinact/Ki), substrate Cbz–Phe–Arg–AMC, pH 5.5, 37 °C, mean ± SE; for decrease in inhibitory potency vs gallinamide A: ratio of k2nd values
Description: Gallinamide A and a series of its 18 derivatives were evaluated in vitro as inhibitors of SmCB1 to explore the binding specificities of the subsites in the enzyme’s active site. The gallinamide A inhibitor scaffold can be defined by positions P4 through P1′ (Schechter and Berger nomenclature[37]), which were assigned according to the binding mode analysis (see the crystallographic section below). The substituents R4, R1, and R1′ introduced on the scaffold (Table 2) are numbered according to the respective positions P4, P1, and P1′. The compounds’ second-order rate constants (k2nd) were determined using a kinetic inhibition assay with recombinant SmCB1 and the substrate, Cbz–Phe–Arg–AMC.
Inhibition measurements were performed in duplicate in 96-well microplates (100 μL assay volume) at 37 °C. SmCB1 (40 pM) was added to a mixture of the fluorogenic substrate Cbz–Phe–Arg–AMC (25 μM) and an inhibitor (0–100 μM) in 0.1 M sodium acetate, pH 5.5, containing 2.5 mM dithiothreitol and 0.01% (w/v) BRIJ 35. Substrate hydrolysis was monitored in an Infinite M1000 microplate reader (Tecan) at excitation and emission wavelengths of 360 and 465 nm, respectively, for up to 150 min. An observed first-order rate constant, kobs, was calculated at each inhibitor concentration by fitting the progress curve to the equation P = vi/kobs(1 – exp(−kobst)) + d where P is the product formation, t is the reaction time, vi is the initial velocity, and d is the offset. […] The second-order rate constant, k2nd, (and SE value) was determined by fitting the linear equation kobs = (k2nd[I])/(1 + [S]/Km), where [S] is the substrate concentration, [I] is the inhibitor concentration, and KM is the Michaelis–Menten constant. The KM value determined for SmCB1 was 25 μM. […] To determine IC50 values, SmCB1 (40 pM) was preincubated with the inhibitor (0–100 μM) for 30 min under assay conditions as described above, followed by the addition of the fluorogenic substrate Cbz–Phe–Arg–AMC (20 μM). Substrate hydrolysis was monitored for 30 min in a microplate reader as described above. The IC50 values were determined by nonlinear regression using GraFit software (Erithacus Software).

Structure (SMILES)	SmPOP activity after gallinamide treatment [1]	SmCB1 inhibition k2nd [2]	SmCB1 inhibition k2nd ([2]; listed as Gallinamide A)	decrease in inhibitory potency vs gallinamide A [2]	SmCB1 inhibition k2nd ([2]; listed as Cpd.1)	SmCB1 inhibition k2nd ([2]; listed as Cpd.6)
CC[C@H](C)[C@@H](C(=O)O[C@@H](CC(C)C)C(=O)N[C@@H](CC(C)C)C(=O)N[C@@H](C)/C=C/C(=O)N1C(=O)C=C(OC)[C@@H]1C)N(C)C [gallinamide A]	unaffected	6644 M^–1·s^–1 and 6644 ± 532 M^–1·s^–1	6644 M^–1·s^–1			
CCC(C)C(C(=O)OC(CC(C)C)C(=O)NC(CC(C)C)C(=O)NC(C)C=CC(=O)N1C(=O)C=C(OC)C1CC(C)C)N(C)C (centres unmarked) [compound 1]	unaffected	3394 ± 133 M^–1·s^–1		2 fold	3394 M^–1·s^–1	
CCC(C)C(C(=O)OC(CC(C)C)C(=O)NC(CC(C)C)C(=O)NC(C)C=CC(=O)N1C(=O)C=C(OC)C1Cc1ccccc1)N(C)C (centres unmarked) [compound 9]	unaffected	793 ± 75 M^–1·s^–1		8.4 fold		
COC1=CC(=O)N(C(=O)/C=C/[C@H](C)NC(=O)[C@H](CC(C)C)NC(=O)[C@H](CC(C)C)OC(=O)[C@H](Cc2ccccc2)N(C)C)[C@H]1Cc1ccccc1 [compound 6]	unaffected	1930 ± 304 M^–1·s^–1		3.4 fold		1930 M^–1·s^–1
